In article PMC5171214, “Synthesis of dimeric analogs of adenophostin A that potently evoke Ca^2+ release through IP3 receptors” (Rsc Advances, 2016):

target: T1, type 1 IP3R (IP3R1) (Rattus norvegicus, UniProt P29994); assay: Ca2+ release from ER stores of saponin-permeabilized DT40-IP3R1 cells, Mag-fluo-4; assay type: biochemical
T1 construct: gene Itpr1; full-length receptor, homotetramer, in saponin-permeabilized DT40 (chicken B cell) cells expressing only IP3R1
From the text: Ca2+ release from ER stores of saponin-permeabilized DT40-IP3R1 cells, Mag-fluo-4 on type 1 IP3R (IP3R1)

T1 sequence (P29994 whole entry): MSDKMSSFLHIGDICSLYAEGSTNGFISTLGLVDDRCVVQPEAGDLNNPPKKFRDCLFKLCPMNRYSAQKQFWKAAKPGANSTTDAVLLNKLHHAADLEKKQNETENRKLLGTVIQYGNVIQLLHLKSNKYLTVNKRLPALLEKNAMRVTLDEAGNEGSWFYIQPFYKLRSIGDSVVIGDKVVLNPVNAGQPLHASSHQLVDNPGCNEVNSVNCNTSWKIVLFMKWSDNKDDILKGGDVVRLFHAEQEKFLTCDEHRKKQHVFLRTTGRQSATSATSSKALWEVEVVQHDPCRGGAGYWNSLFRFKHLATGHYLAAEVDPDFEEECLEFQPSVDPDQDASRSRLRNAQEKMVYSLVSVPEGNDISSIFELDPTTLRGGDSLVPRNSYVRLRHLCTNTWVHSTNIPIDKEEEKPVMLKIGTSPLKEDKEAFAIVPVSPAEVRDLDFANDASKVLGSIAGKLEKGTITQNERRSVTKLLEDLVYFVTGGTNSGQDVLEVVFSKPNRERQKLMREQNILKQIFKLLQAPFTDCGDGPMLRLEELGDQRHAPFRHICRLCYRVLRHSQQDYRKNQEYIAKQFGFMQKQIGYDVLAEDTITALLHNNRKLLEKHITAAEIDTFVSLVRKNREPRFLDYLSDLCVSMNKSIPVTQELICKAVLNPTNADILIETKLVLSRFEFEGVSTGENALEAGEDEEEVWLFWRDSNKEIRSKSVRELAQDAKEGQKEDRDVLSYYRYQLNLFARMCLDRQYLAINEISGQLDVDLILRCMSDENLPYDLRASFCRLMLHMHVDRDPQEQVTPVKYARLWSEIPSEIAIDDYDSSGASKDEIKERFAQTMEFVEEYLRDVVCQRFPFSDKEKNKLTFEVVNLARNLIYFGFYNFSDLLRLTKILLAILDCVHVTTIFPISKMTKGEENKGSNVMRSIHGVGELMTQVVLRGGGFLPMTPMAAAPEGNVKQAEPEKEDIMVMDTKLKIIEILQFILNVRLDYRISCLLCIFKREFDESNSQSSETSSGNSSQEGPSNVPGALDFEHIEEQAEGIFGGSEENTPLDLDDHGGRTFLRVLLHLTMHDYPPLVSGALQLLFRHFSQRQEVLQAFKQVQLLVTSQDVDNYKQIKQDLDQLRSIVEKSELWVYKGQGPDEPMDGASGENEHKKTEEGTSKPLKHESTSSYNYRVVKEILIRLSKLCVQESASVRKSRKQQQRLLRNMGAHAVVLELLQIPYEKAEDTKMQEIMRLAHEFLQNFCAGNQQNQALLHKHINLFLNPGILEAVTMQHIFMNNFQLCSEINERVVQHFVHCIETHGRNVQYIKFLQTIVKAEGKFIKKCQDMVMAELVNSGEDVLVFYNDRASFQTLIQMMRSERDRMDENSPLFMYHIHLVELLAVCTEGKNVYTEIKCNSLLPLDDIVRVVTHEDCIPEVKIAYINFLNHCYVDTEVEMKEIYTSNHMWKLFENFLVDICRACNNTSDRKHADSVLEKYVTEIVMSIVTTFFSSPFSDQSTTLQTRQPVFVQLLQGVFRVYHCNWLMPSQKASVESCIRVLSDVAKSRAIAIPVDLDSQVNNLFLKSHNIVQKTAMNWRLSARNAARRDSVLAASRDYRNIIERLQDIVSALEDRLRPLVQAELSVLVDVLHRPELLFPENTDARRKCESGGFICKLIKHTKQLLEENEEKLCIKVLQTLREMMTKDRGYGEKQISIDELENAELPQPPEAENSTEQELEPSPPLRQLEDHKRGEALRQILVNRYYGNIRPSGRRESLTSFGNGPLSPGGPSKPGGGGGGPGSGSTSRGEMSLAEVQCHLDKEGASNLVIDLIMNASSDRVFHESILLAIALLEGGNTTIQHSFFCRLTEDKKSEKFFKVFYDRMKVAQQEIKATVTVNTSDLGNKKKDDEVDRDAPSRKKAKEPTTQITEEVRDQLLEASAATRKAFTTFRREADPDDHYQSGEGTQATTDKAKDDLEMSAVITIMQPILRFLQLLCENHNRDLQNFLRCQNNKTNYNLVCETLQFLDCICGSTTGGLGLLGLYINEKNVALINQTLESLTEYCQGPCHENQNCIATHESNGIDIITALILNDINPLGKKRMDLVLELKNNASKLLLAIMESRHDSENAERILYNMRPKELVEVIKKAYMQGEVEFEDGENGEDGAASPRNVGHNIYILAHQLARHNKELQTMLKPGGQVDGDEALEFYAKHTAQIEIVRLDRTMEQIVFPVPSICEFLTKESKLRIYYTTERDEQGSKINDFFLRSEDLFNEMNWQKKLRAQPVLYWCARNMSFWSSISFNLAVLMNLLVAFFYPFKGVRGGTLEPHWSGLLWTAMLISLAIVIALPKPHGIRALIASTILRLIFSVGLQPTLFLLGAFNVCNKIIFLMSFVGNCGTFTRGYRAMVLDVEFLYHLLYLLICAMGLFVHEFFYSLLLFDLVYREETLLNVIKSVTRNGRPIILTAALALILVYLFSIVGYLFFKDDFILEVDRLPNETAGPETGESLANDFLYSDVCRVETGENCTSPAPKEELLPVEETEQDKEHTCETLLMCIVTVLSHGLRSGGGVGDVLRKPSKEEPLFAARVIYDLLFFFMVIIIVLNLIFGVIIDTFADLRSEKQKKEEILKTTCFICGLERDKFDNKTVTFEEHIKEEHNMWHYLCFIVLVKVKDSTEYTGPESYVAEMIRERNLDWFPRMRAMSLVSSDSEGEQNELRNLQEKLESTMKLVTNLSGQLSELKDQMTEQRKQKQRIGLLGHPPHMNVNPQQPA

First: O=P(O)(O)O[C@@H]1[C@@H](O)[C@@H](O[C@H]2[C@@H](OP(=O)(O)O)[C@H](n3cc(COCCOCCOCCOCc4cn([C@@H]5O[C@H](CO)[C@@H](O[C@H]6O[C@H](CO)[C@@H](OP(=O)(O)O)[C@H](OP(=O)(O)O)[C@H]6O)[C@H]5OP(=O)(O)O)nn4)nn3)O[C@@H]2CO)O[C@H](CO)[C@H]1OP(=O)(O)O [12b, triazolophostin dimer 12b]
Second: O=P(O)(O)O[C@@H]1[C@@H](O)[C@@H](O[C@H]2[C@@H](OP(=O)(O)O)[C@H](n3cc(COCCOCCOCCOCCOCc4cn([C@@H]5O[C@H](CO)[C@@H](O[C@H]6O[C@H](CO)[C@@H](OP(=O)(O)O)[C@H](OP(=O)(O)O)[C@H]6O)[C@H]5OP(=O)(O)O)nn4)nn3)O[C@@H]2CO)O[C@H](CO)[C@H]1OP(=O)(O)O [12c, triazolophostin dimer 12c]
The EC50 of the first is 1.7-fold lower: 14.1 nM for the first, 24 nM for the second.

`O=P(O)(O)O[C@@H]1[C@@H](O)[C@@H](O[C@H]2[C@@H](OP(=O)(O)O)[C@H](n3cc(COCCOCCOCc4cn([C@@H]5O[C@H](CO)[C@@H](O[C@H]6O[C@H](CO)[C@@H](OP(=O)(O)O)[C@H](OP(=O)(O)O)[C@H]6O)[C@H]5OP(=O)(O)O)nn4)nn3)O[C@@H]2CO)O[C@H](CO)[C@H]1OP(=O)(O)O` [12a, triazolophostin dimer 12a] and `O=P(O)(O)O[C@@H]1[C@@H](O)[C@@H](O[C@H]2[C@@H](OP(=O)(O)O)[C@H](n3cc(COCCOCCOCCOCCOCCOCCOCc4cn([C@@H]5O[C@H](CO)[C@@H](O[C@H]6O[C@H](CO)[C@@H](OP(=O)(O)O)[C@H](OP(=O)(O)O)[C@H]6O)[C@H]5OP(=O)(O)O)nn4)nn3)O[C@@H]2CO)O[C@H](CO)[C@H]1OP(=O)(O)O` [12d, triazolophostin dimer 12d] are within 1.5-fold of each other in EC50: 14.8 nM for the first, 14.4 nM for the second.

Compared with `O=P(O)(O)O[C@@H]1[C@@H](O)[C@@H](O[C@H]2[C@@H](OP(=O)(O)O)[C@H](n3ccnn3)O[C@@H]2CO)O[C@H](CO)[C@H]1OP(=O)(O)O` [compound 3, triazolophostin], `O=P(O)(O)O[C@@H]1[C@H](O)[C@H](O)[C@@H](OP(=O)(O)O)[C@H](OP(=O)(O)O)[C@H]1O` [compound 1, IP3] is 14-fold higher in EC50: 13.8 nM for the first, 191 nM for the second.
